Series [1] concerns intracellular M. tuberculosis H37Rv (WT). As to the kind of experiment: microbe, parasite or virus in culture. The format is cell-based. The note with it: Mycobacterium tuberculosis, 72 h.
The subject of series [2] is intracellular M. tuberculosis ΔptpA. The format is cell-based, Mycobacterium tuberculosis.
Series [3] addresses T1, GSK3β (Homo sapiens, UniProt P49841).
T1 construct: purchased SignalChem (Richmond, BC, Canada), contract assay service
As to the kind of experiment: in vitro inhibition of GSK3β, ADP-Glo Kinase assay (SignalChem). The format is biochemical. Conditions: normalized to negative control. As for the experimental part:
Samples of three GSK3 inhibitors (P-4423632, P-0717632, P-3817632) were sent to SignalChem (Richmond, BC, Canada) where a compound selectivity assay was performed and the IC50 values of the inhibitors were determined.
Figure S3: in vitro inhibition of GSK3β by selected inhibitors, related to Star Methods: Determination of IC50 of GSK3 inhibitors. GSK3β activity was measured using the ADP-GloTM Kinase assay and normalized to the negative control (100% kinase activity). Curve was fit using non-linear regression analysis calculated with GraphPad Prism software.
(also on this page, place not known: % Inhibition GSK3β % Inhibition GSK3β % Inhibition GSK3β IC50)
A general note: In ADP-Glo the light output rises with the ADP produced.

Series [4] concerns Staphylococcus aureus. Briefly: Disk assay, in vitro activity. Format: cell-based.
Series [5] has as its system Mycobacterium abscessus. Format: cell-based. The note with it: up to 100 μg of P-4423632.
Series [6] deals with hMDM.
The subject of series [7] is THP-1 cells. As to the kind of experiment: Annexin V FITC apoptosis assay, flow cytometry. The format is cell-based, human. In general terms: Flow cytometry measures light scatter and fluorescence of single cells or particles in a stream.
For series [8], the system named is Enterococcus faecalis. Briefly: Disk assay, in vitro activity. Format: cell-based. Conditions: up to 25 μg of P-4423632.
Series [9] deals with M. avium avium. Briefly: Disk assay, in vitro activity. Format: cell-based.
For series [10], the system named is intracellular Mtb in GSK3α KO / GSK3β KO THP-1 cells. The format is cell-based, Mycobacterium tuberculosis. The note with it: 10 μM P-4423632, 72 h.
In series [11] the test system is panel of bacteria, including Mtb. Format: cell-based.
In series [12] the test system is intracellular Mtb H37Rv in THP-1 cells. Briefly: Dose dependent activity against intracellular Mtb, high content analysis of fluorescent Mtb (Fig 3E). Format: cell-based, Mycobacterium tuberculosis.
The nature of series [13]: Cytotoxicity analysis (MTT assay). Format: cell-based. The note with it: human, differentiated THP-1 cells, toxicity level to THP-1 cells. As for the experimental part:
The MTT assay was performed as described previously.[19] […] At the 69.5-hour time point, 25 μL of 3-(4,5-dimethylthiazol-2-yl)-2,5-diphenyltetrazolium bromide (MTT) solution were added to each well. […] The absorbance of each well was read at 570 nm and these values were used to calculate the percentage of viable cells.
In general terms: Formazan colour is commonly taken as a measure of viable cells.

Series [14] has as its system Mycobacterium tuberculosis H37Rv auxotroph, mc2 6206. Format: cell-based.
Series [15] relates to Escherichia coli. As to the kind of experiment: Disk assay, in vitro activity. The format is cell-based.
Series [16] has as its system Mycobacterium tuberculosis H37Rv in broth. Briefly: In-broth activity analysis (resazurin assay).
The subject of series [17] is Moraxella catarrhalis. As to the kind of experiment: Disk assay, in vitro activity. The format is cell-based.
The test system of series [18] is Campylobacter jejuni in Caco-2 cells. Briefly: Caco-2 infection with C. jejuni, CFU. Format: cell-based. Conditions: two-fold serial dilutions, 24h. As to the method:
Isolated colonies from overnight culture grown on Muller -Hinton (MH) plates in microaerophilic conditions were inoculated into liquid MH media and grown overnight. Bacteria were pelleted by centrifugation and resuspended in DMEM media. The bacteria were then added at an MOI of 100-400 to Caco-2 cells in 24-well plates at 10^5 cells per well. After 2 h of incubation, infected cells were washed with fresh DMEM and incubated an additional 2 h with 100-200 μg/ml gentamycin followed by the addition of test compounds and incubation for 24 h. After incubation, cells were washed with fresh DMEM and lysed by osmotic shock with sterile […] and passed through a 27G needle with a syringe. The lysate was serially diluted and plated in MH agar using the pouring plate method. CFU were then counted after a 24 - 48 h incubation. To assess cell survival, a duplicate of the previous conditions was used to undergo MTT assay or cell count with the CX5 using DAPI staining. […]
intracellular bacteria. Related to Star Methods describing C. Jejuni and S. enterica infections. […] Percent inhibition was calculated by subtracting CFU values as a percentage of the untreated DMSO control (plotted at 0.1 µM) from 100%. […] Curve was fit using non-linear regression analysis of log (inhibitor) vs. response (variable slope) calculated with GraphPad Prism 10. […]

Series [19] deals with Bacillus subtilis. As to the kind of experiment: Disk assay, in vitro activity. Format: cell-based.
In series [20] the test system is Mycobacterium bovis BCG. The format is cell-based.
In series [21] the test system is Mycobacterium tuberculosis H37Rv in THP-1. Briefly: Minimal inhibitory concentrations of P-4423632 against Mtb H37Rv in THP-1 (Table S3). The format is cell-based. An excerpt:
Table S3. Minimal inhibitory concentrations of P-4423632 against Mycobacterium tuberculosis H37Rv in cell lines and in broth, and inhibitory concentrations (toxicity level) to THP-1 cells. Related to Figure 2.

In series [22] the test system is Salmonella typhimurium. As to the kind of experiment: Disk assay, in vitro activity. The format is cell-based.
Series [23] concerns MRSA. Briefly: Disk assay, in vitro activity. The format is cell-based. Conditions: up to 25 μg of P-4423632.
Series [24] concerns GSK3α Y279 / GSK3β Y216 phosphorylation. Briefly: Western blot of Y279 - Y216 phosphorylation status of GSK3α and GSK3β in THP-1 cells. The format is cell-based, human.
Series [25] concerns Mycobacterium intracellulare. Briefly: Disk assay, in vitro activity. The format is cell-based.
For series [26], the system named is Staphylococcus epidermidis. Briefly: Disk assay, in vitro activity. Format: cell-based.
The test system of series [27] is Mycobacterium smegmatis. Format: cell-based. The note with it: up to 100 μg of P-4423632.
Series [28] has as its system Acinetobacter baumannii. Briefly: Disk assay, in vitro activity. The format is cell-based.
Series [29] relates to Salmonella enterica serovar Typhimurium in THP-1 cells. As to the kind of experiment: THP-1 infection with S. typhimurium, high content screening. The format is cell-based. Conditions: MOI 10:1, 24h.
The test system of series [30] is Mycobacterium tuberculosis H37Rv in hMDM. As to the kind of experiment: microbe, parasite or virus in culture. The format is cell-based.
Series [31] relates to Pseudomonas aeruginosa. As to the kind of experiment: Disk assay, in vitro activity. Format: cell-based.
For series [32], the system named is Mycobacterium marinum. As to the kind of experiment: Disk assay, in vitro activity. Format: cell-based. Conditions: up to 25 μg of P-4423632.
For series [33], the system named is Mtb infection. More on the design: method as in PMID 35095838. Conditions: GSK3α/β inhibition ref 56; cited from earlier work.

Results on 6 molecules are retold here after PMC11340618 (iScience, 2024).

Values after ≈ are worked out from the molar mass of the structure shown. Values joined by “and” are separate entries in the source; they are usually repeats but may differ in a detail not shown here. Identical values can stand only once. Like-named read-outs stand apart in the source and are kept apart here. Where only a bound is given, the exact number is not on record here.

The term IC50 denotes the midpoint of a concentration-inhibition curve. As usually defined, the IC90 is the concentration at which the effect reaches the 90% level.

T1 sequence (P49841 whole entry): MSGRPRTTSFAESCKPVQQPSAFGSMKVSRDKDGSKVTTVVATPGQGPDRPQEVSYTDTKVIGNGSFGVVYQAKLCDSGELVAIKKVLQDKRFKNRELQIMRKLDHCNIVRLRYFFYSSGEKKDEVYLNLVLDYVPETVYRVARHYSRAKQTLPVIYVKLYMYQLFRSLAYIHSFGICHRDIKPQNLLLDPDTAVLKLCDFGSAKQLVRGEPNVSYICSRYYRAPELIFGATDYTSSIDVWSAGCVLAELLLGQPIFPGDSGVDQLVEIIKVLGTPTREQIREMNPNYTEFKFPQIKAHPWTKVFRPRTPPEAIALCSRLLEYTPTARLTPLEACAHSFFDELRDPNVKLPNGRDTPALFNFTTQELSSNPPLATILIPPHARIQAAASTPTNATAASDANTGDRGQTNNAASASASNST

In turn, `CSc1ccc(-n2cnc3ccc(-c4nnc(CCc5cccc(C#N)c5)o4)cc32)cc1` [P-0717632] showed an MIC50 in [1] of 0.4 µM (≈ 0.175 µg/mL). Also, in series [2], the “MIC25 ΔptpA” value is reported as greater than 25 µM and the “MIC50 ΔptpA” value is on record as greater than 25 µM.

In series [1], `CSc1ccc(-n2cnc3ccc(-c4nnc(CCc5cccc(C(F)(F)F)c5)o4)cc32)cc1` [P-3817632] registered an MIC25 of 0.6 µM (≈ 0.288 µg/mL) and an MIC50 of 2 µM (≈ 0.961 µg/mL). Further, in series [2], the “MIC25 ΔptpA” value is given as 13.8 µM (≈ 6.63 µg/mL) and the “MIC50 ΔptpA” value was greater than 25 µM. This molecule yielded an IC50 in [3] of 280 nM.

Turning to `O=C(NCc1ccccn1)Nc1cc(N2CC(CCc3ccccc3)CC2=O)ccn1` (stereo not shown) [P-4423632], the Disk assay susceptibility entry in series [4] (up to 25 μg of P-4423632), in [5], in series [8], in [9] (up to 25 μg of P-4423632), in series [14] and in [15] (up to 25 μg of P-4423632) was “R” in each case. Also, the Disk assay susceptibility entry in series [17] (up to 25 μg of P-4423632), in series [19] (up to 25 μg of P-4423632), in series [20] (up to 25 μg of P-4423632), in series [22] (up to 25 μg of P-4423632), in [23] and in [25] (up to 25 μg of P-4423632) was “R” throughout. Moreover, the Disk assay susceptibility result in [26] (up to 25 μg of P-4423632), in series [27], in series [28] (up to 25 μg of P-4423632), in series [31] (up to 25 μg of P-4423632) and in [32] was “R” in each case. The “effect on host cell viability” value in [6] is “no effect on host cell viability”. Besides, the Apoptotic cells in [7] was 16.31% and 30.57% and 31.59%. Moreover, the Dead cells in [7] was 9.32% and 6.98%. Besides, the Live cells in series [7] was 67.62% and 58.79% and 58.44%. Further, the “effect on apoptosis of infected THP-1 cells” value in series [7] is listed as “upregulation of apoptosis”. The molecule further came in with an MIC25 in series [1] of 2.9 µM (≈ 1.2 µg/mL). The molecule also returned an MIC50 in series [1] of 6.4 µM (≈ 2.66 µg/mL). In addition, the “MIC25 ΔptpA” value in [2] is given as greater than 25 µM. Also, in [2], the “MIC50 ΔptpA” value is on record as greater than 25 µM. The IC50 worked out at 748 nM in [3]; 3.88e-05 M in series [16] (read-out: (M)IC50, Mtb H37Rv in broth); 2.31e-06 M in series [21] (H37RV, THP-1, read-out: (M)IC50); 4.17 µM in series [30] (Mycobacterium tuberculosis, Macrophage, Mtb H37Rv in hMDM). The “Reduction % of intracellular Mtb survival vs untreated counterpart” value in [10] (GSK3α KO THP-1 cells) is “over 75%”; in series [10] (GSK3β KO THP-1 cells) it was roughly 50%. Moreover, in [11], the “activity in disk-diffusion antibiotics susceptibility assay” value is “inactive”. In series [12], the “dose-dependent activity against intracellular Mtb” value was “dose-dependent activity”. In series [13] (read-out: (M)IC50, cytotoxicity in THP1), the IC50 at 72 h worked out at 7.78e-05 M. Also, the IC90 at 72 h in series [13] (read-out: (M)IC90, cytotoxicity in THP1) came to 0.000115 M. The “in-broth MIC50 compared to intracellular activity” value in series [16] (in broth vs intracellular) is “over 10 fold”. Besides, the IC90 in [16] (read-out: (M)IC90, Mtb H37Rv in broth) was found to be 4.33e-05 M; in [21] (Mtb H37Rv in THP-1), 16 µM. Further, the “activity against intracellular C. jejuni” value in [18] is on record as “active in a dose-dependent manner”. Moreover, in [24], the “phosphorylation of GSK3α Y279 and GSK3β Y216” value was “reduced phosphorylation of both Y279 and Y216”. Further, the “activity against intracellular S. Typhimurium” value in series [29] was “active in a dose-dependent manner”. The “effect on Mtb intracellular replication in hMDMs” value in series [30] (hMDMs combined from two donors, 72 h) is “restricted Mtb intracellular replication in a dose dependent manner”.

Take `Cc1nnc(-c2ccc3occ(-c4ccc([S+](C)[O-])c(OC(F)(F)F)c4)c3c2)o1` (stereo not shown) [P-5782442]: in series [1], the MIC25 was found to be 1.6 µM (≈ 0.676 µg/mL) and the MIC50 is greater than 25 µM. Besides, in [2], the “MIC25 ΔptpA” value was greater than 25 µM and the “MIC50 ΔptpA” value was greater than 25 µM.

`Cn1cc(C2=C(c3ccc(Cl)cc3Cl)C(=O)NC2=O)c2ccccc21` [SB216763]: the “effect on Mtb infection” value in series [33] was “increased Mtb infection”.

Regarding Gentamycin [reference compound], the “Control (mm), disk assay clearing” value in [4] (Gen 10 μg) was 25 mm; in series [9] (Gen 12.5 μg), 21 mm; in series [15] (Gen 10 μg), 18 mm; in [17] (Gen 10 μg), 30 mm; in series [19] (Gen 10 μg), 24 mm; in series [20] (Gen 10 μg), 30 mm. Further, the “Control (mm), disk assay clearing” value in series [22] (Gen 10 μg) stood at 20 mm; in series [25] (Gen 12.5 μg) it was 20 mm; in series [26] (Gen 10 μg), 26 mm; in [28] (Gen 10 μg) it was 20 mm; in [31] (Gen 10 μg) it was 21 mm.
